Results as given in ChEMBL document CHEMBL1201862, “PubChem BioAssay data set” (2004).
The source made the active and inactive calls.

Legend:
[1] = MC4R antagonists, dose response, counter-screen for LGR2 antagonist project, cell-based, plate reader, cherry pick (AID 743444); format: functional;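 further: transfected HEK 293 cells stimulated with alpha-MSH peptide; potency of inhibitors of the alpha-MSH evoked signal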
[2] = HEK293 cell cytotoxicity, dose response, cytotoxicity control, plate reader, cherry-picked samples (AID 743446); format: functional, cell-based
[3] = A549 cell cytotoxicity, dose response, cytotoxicity control, plate reader, cherry-pick, antagonist series (AID 743412); format: functional, cell-based
[4] = LGR2 antagonists, dose response, cell-based, HEK293, CRE-luciferase reporter, cherry pick, set 2 (AID 743343); format: functional;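 further: transfected cells were stimulated with diluted bursicon conditioned medium after compound addition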
[5] = HepG2 cell cytotoxicity, dose response, cytotoxicity control, plate reader, cherry-pick, antagonist series (AID 743416); format: functional, cell-based
[6] = biological target: Genome polyprotein (dengue virus type 2, UniProt P29990); assay: Dengue-2 NS5 methyltransferase inhibitors, primary screen, biochemical, confirmation dose response (AID 588689); format: functional
[7] = biological target: T1, Protein RecA (Mycobacterium tuberculosis, UniProt P9WHJ3); assay: Fluorescence Cell-Free Homogeneous Dose Retest to Identify Inhibitors of RecA-Intein Splicing Activity. [Related pubchem assays (depositor defined):AID2097, AID2223, AID489010, AID492950]; format: functional
T1 sequence (P9WHJ3 whole entry): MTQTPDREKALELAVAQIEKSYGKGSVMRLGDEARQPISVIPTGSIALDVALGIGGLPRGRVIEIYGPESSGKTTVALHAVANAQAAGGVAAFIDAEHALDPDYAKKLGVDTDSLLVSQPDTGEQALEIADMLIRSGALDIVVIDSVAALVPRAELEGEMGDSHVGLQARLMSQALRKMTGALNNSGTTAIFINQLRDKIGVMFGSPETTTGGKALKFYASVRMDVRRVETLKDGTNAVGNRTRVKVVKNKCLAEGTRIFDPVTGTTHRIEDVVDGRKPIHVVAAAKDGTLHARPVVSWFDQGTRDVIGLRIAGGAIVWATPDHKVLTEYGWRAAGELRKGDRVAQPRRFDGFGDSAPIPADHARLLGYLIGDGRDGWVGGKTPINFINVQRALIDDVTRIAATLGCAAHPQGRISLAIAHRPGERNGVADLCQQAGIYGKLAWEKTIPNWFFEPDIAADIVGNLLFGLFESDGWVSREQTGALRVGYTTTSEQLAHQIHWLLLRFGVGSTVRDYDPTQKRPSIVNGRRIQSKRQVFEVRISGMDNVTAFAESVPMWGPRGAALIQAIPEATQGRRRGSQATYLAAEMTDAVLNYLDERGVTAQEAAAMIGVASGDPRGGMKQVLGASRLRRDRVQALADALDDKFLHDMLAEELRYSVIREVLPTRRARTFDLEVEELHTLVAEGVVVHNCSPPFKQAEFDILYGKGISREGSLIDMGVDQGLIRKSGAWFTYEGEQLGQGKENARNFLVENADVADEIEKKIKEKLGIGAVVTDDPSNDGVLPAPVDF

[8] = biological target: Tyrosyl-DNA phosphodiesterase 2 (Homo sapiens, UniProt O95551); assay: human TDP2 enzyme inhibitors, dose response, biochemical, epi absorbance, IC50 (AID 743297)
[9] = biological target: T2, Replicative DNA helicase DnaB (Mycobacterium tuberculosis, UniProt P9WMR3); assay: DnaB intein splicing inhibitors, dose response, biochemical, cell-free fluorescence (AID 449749); format: functional
T2 sequence (P9WMR3 whole entry): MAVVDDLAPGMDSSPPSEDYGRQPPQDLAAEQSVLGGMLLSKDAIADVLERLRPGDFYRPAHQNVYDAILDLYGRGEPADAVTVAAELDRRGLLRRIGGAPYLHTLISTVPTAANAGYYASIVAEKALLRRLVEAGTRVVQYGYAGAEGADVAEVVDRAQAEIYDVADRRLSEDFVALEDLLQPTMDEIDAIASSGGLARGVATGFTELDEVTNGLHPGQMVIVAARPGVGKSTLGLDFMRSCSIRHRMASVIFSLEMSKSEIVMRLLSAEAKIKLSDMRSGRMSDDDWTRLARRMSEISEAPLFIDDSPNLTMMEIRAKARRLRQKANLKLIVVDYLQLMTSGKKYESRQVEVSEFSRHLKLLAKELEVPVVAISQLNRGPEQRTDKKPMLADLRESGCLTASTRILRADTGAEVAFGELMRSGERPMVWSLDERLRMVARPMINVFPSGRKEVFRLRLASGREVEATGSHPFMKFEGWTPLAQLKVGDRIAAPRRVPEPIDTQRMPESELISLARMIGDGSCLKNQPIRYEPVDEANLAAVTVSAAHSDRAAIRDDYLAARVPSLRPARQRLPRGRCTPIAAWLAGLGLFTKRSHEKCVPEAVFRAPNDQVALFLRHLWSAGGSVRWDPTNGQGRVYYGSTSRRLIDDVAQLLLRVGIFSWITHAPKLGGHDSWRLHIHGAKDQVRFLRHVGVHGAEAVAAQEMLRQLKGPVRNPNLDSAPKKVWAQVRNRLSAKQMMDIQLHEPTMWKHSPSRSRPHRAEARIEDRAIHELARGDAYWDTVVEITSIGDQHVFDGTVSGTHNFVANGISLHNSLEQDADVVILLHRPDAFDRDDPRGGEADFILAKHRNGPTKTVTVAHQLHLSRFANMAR

[10] = A375 melanoma cell cytotoxicity, dose response, counter-screen for MITF inhibitor project, CellTiter-Glo luminescence, dry powder, set 2 (AID 624489); format: functional, cell-based; conditions: A-375;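 further: actives are compounds lowering A375 viability meaning general cytotoxicity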
[11] = A375 melanoma cell viability loss, dose response, counter-screen for MITF inhibitor project, CellTiter-Glo luminescence, dry powder, set 4 (AID 624364); format: functional, cell-based; conditions: A-375;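 further: A375 melanoma cells are MITF independent so this is a counter screen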
[12] = growth suppression of PTEN-null colon cells, dose response, cell-based, HCT116 PTEN knockout (AID 1047); format: functional;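 further: HCT116 colon tumor cells with PTEN knocked out; cells exposed to compound for 60 hours before readout; potency for loss of cell viability measured by luminescence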
[13] = inhibitors of clade B AD8 Env fusion, dose response, cell-based, cherry-pick (AID 652062); format: functional;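 further: luciferase signal from cell-cell fusion driven by HIV-1 clade B AD8 Env; potency is for inhibitors of fusion seen as a drop in luminescence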
[14] = system: HEK293; assay: inhibitors of LMP1-driven NF-kB reporter, dose response, cell-based, HEK293, luciferase, cherry-pick (AID 588343); format: functional; conditions: Homo sapiens
[15] = CEM21 lymphoblast cell cytotoxicity, dose response, cytotoxicity control for viral fusion inhibitor project, CellTiter-Glo luminescence, cherry-picked (AID 652042); format: functional, cell-based;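 further: potency for signal decrease meaning cytotoxicity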
[16] = inhibitors of HIV Env-driven cell fusion, dose response, cherry-pick (AID 652057); format: functional, cell-based
[17] = system: BJ; assay: cytotoxicity toward Ras-transformed BJeLR fibroblasts, dose response, cell-based, alamar blue fluorescence, cherrypicked samples (AID 2631); format: functional; conditions: Homo sapiens;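 further: confirmatory dose-response assay in RAS-dependent BJ fibroblasts engineered with TERT, LT and ST, with cytotoxicity read by fluorescence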
[18] = system: BJ; assay: cells; format: functional, cell-based; conditions: Homo sapiens
[19] = inhibitors of firefly luciferase expression or activity, dose response, H4 neuroglioma cells, luminescence (AID 1990); format: functional, cell-based
[20] = biological target: Voltage-dependent T-type calcium channel subunit alpha-1H (Homo sapiens, UniProt O95180); format: functional;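 further: channel activity triggered by adding a high calcium stimulation buffer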
[21] = biological target: Paired box protein Pax-8 (Homo sapiens, UniProt Q06710); assay: inhibitors of PAX8-driven TPO luciferase reporter, dose response, RMG-I cells, cherry-pick (AID 687027); format: functional, cell-based;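 further: luciferase reporter driven by Pax8 target thyroperoxidase promoter measured by SteadyGlo luminescence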
[22] = cytotoxicity in KRAS-transformed pancreatic duct cells, primary screen, cell-based, fluorescence, HTS (AID 431); format: functional; conditions: Homo sapiens;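 further: cell line used: HPDE-C7K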
[23] = cytotoxicity toward DRD oncogenic fibroblasts, dose response, cell-based, non-viral oncogenic, luminescence (AID 1934); format: functional; conditions: Homo sapiens
[24] = Luminescence Cell-Based Dose Response HTS to Identify Inhibitors of 5'UTR Stem-Loop Driven Prion Protein mRNA Translation in H4 Neuroglioblastoma Cells. [Related pubchem assays: 1827 (Project Summary), 1813 (Primary HTS)]; format: functional
[25] = system: BJ; assay: cytotoxicity toward BJ-TERT-LT-ST fibroblasts, dose response, cell-based, RAS-independent, luminescence (AID 1935); format: functional; conditions: Homo sapiens;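 further: BJ fibroblasts immortalized with TERT plus LT and ST oncogenes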
[26] = cytotoxicity in HPDE-C7 cells, cell-based, fluorescence, HTS (AID 430); format: functional; conditions: Homo sapiens
[27] = inhibitors of SNCA 5'UTR-driven reporter translation, confirmation, H4 neuroglioma cells, luminescence (AID 1988); format: functional, cell-based
[28] = growth suppression of beta-catenin-knockout colon cells, dose response, cell-based, HCT116, human colon tumor (AID 1045); format: functional;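 further: HCT116 colon tumor cells with beta catenin knocked out; cells exposed to compound for 60 hours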
[29] = ZM109 Env clade C HIV-1 fusion inhibitors, dose response, HeLa effector, CEM target cells, luciferase, cherry-pick (AID 652058); format: functional, cell-based
[30] = non-specific cell cytotoxicity, dose response, cytotoxicity control for PAX8 inhibitor project, plate reader, dry powder samples (AID 743021); format: functional, cell-based
[31] = biological target: T3, Heat shock factor protein 1 (Mus musculus, UniProt P38532); assay: inhibition of MG132-induced HSE-luciferase signal, confirmation, cell-based, NIH3T3, luminescence, dose retest (AID 2382); format: functional;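 further: NIH3T3 fibroblasts with HSF1-driven luciferase reporter stressed by proteasome inhibitor MG132; luminescence from HSF1-driven luciferase expression after 8 hours of MG132 stress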
T3 sequence (P38532 whole entry): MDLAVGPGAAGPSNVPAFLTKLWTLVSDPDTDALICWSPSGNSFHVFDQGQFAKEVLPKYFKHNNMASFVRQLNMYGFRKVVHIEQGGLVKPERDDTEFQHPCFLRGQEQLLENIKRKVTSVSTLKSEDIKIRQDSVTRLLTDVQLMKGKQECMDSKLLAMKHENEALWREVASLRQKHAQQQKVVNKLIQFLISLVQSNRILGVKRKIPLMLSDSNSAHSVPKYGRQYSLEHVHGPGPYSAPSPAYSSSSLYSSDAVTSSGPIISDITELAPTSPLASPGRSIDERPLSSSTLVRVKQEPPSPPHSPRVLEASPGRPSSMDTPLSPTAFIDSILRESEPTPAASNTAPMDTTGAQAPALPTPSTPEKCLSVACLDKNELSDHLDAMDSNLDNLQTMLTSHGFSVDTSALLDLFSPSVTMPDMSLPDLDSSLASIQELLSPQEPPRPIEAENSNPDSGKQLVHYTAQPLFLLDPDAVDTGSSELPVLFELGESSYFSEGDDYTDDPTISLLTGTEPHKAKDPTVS

[32] = system: BJ; assay: cytotoxicity toward BJ-TERT fibroblasts, dose response, cell-based, RAS-independent, luminescence (AID 1933); format: functional; conditions: Homo sapiens
[33] = off-target signal loss in HeLa-CEM21 co-culture – HeLa F-luc CTL cells, cherry-picked, counter-screen for HIV-1 Env fusion inhibitor project, dose response (AID 652040); format: functional, cell-based;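 further: potency for signal decrease marking cytotoxic or nonspecific inhibition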
[34] = biological target: NAD-dependent protein deacylase sirtuin-5, mitochondrial (Homo sapiens, UniProt Q9NXA8); assay: SIRT5 deacylase inhibitors, dose response, biochemical, fluorescence imaging, cherry-pick, set 6 (AID 720597)
[35] = IOSE-T80 ovarian epithelial cell cytotoxicity, dose response, cytotoxicity control for PAX8 inhibitor project, plate reader, dry powder samples (AID 743045); format: functional, cell-based
[36] = cytotoxicity in OVCAR8 ovarian cancer cells, dose response, PAX8 project, cell-based, plate reader, dry powder samples (AID 743197); format: functional; conditions: OVCAR-8
[37] = IGROV1 ovarian cancer cell cytotoxicity, dose response, PAX8 inhibitor project, plate reader, dry powder samples (AID 743043); format: functional, cell-based; conditions: IGROV-1
[38] = NIH:OVCAR-3 ovarian cancer cell cytotoxicity, dose response, PAX8 inhibitor project, plate reader, dry powder samples (AID 743044); format: functional, cell-based
[39] = A2780 ovarian cancer cell cytotoxicity, dose response, cytotoxicity control, plate reader, dry powder samples (AID 743046); format: functional, cell-based
[40] = biological target: Metabotropic glutamate receptor 3 (Rattus norvegicus, UniProt P31422); assay: mGlu3 negative allosteric modulator potency, dose response, HEK/GIRK cells, thallium flux, rat (AID 651839); format: functional

Chain of Paired box protein Pax-8 (Q06710 whole entry): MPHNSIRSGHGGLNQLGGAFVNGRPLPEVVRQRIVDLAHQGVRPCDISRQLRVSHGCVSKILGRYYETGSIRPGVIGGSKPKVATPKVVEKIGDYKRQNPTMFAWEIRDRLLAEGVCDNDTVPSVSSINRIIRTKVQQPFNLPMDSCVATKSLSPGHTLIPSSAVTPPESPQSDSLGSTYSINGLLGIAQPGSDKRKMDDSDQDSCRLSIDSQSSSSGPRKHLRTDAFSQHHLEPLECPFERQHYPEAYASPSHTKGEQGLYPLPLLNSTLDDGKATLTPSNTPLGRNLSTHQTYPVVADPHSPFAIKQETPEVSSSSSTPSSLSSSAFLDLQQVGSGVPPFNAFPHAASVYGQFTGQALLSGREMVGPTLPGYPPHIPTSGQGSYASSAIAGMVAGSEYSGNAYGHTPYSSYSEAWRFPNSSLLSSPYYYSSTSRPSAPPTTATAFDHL
Chain of Voltage-dependent T-type calcium channel subunit alpha-1H (O95180 whole entry): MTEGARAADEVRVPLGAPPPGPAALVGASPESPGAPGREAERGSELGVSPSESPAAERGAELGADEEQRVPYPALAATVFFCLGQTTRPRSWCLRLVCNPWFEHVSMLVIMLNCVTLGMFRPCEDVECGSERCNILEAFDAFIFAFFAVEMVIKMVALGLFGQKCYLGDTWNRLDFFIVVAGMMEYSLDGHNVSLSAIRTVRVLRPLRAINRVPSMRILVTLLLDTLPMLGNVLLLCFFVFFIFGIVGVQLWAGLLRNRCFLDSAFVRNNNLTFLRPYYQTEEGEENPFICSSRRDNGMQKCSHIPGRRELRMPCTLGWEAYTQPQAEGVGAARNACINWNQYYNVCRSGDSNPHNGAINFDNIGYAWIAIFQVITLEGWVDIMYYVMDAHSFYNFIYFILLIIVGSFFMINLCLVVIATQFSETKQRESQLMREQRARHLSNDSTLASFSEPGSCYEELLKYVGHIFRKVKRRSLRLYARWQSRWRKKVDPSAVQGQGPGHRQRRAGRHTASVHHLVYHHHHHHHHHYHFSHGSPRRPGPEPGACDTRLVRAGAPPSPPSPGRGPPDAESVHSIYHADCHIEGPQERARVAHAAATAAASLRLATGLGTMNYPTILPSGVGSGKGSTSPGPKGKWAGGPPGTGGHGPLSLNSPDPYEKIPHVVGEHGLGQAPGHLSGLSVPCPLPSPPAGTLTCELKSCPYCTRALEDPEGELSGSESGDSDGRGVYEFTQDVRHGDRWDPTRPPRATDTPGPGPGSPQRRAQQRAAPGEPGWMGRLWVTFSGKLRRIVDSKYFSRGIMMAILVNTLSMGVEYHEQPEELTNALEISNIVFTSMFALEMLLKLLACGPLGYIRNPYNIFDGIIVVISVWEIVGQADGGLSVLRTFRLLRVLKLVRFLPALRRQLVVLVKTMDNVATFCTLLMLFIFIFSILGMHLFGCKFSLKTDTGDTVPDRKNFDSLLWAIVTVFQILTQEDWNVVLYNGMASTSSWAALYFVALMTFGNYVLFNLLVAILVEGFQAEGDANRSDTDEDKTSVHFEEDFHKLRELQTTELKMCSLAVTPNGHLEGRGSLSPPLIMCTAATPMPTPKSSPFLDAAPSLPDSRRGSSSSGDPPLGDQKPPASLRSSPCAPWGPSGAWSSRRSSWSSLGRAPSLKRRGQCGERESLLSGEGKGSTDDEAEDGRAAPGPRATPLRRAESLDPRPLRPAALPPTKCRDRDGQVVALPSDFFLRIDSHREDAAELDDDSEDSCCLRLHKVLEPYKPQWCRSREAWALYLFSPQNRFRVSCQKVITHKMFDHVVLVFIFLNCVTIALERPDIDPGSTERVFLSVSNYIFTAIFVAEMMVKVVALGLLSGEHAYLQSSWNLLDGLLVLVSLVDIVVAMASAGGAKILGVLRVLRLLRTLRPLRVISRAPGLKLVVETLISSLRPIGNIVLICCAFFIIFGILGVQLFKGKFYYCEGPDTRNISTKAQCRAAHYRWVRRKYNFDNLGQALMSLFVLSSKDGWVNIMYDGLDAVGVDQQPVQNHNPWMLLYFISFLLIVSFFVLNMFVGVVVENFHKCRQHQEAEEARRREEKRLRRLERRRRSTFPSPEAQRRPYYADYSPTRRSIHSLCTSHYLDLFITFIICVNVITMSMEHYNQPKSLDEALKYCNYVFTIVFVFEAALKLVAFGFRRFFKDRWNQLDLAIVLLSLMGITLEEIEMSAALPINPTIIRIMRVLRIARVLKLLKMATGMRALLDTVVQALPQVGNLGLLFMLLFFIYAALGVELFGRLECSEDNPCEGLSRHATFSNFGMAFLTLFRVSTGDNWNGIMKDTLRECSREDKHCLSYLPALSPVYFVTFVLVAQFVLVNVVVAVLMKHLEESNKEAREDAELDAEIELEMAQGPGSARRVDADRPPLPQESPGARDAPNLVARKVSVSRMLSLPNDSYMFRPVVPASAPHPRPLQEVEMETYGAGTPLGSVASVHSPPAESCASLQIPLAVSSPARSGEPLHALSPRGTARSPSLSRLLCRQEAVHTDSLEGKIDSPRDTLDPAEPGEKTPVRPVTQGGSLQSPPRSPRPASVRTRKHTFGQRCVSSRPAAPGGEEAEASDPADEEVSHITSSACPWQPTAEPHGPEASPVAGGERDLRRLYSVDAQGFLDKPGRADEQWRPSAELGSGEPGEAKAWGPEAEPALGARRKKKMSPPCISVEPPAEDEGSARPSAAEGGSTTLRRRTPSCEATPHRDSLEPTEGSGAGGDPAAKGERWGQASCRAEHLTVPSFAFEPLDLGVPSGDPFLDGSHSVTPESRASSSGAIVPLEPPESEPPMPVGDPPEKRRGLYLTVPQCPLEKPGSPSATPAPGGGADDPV
Chain of Tyrosyl-DNA phosphodiesterase 2 (O95551 whole entry): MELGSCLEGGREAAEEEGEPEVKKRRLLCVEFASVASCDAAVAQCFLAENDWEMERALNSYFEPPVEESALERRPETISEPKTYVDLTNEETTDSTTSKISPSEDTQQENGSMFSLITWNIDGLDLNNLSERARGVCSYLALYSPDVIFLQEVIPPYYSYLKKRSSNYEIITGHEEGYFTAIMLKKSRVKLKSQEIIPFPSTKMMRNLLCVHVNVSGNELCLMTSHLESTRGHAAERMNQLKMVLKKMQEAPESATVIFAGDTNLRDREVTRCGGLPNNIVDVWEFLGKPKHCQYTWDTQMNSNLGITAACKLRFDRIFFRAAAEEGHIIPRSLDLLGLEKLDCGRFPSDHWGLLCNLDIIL
Chain of NAD-dependent protein deacylase sirtuin-5, mitochondrial (Q9NXA8 whole entry): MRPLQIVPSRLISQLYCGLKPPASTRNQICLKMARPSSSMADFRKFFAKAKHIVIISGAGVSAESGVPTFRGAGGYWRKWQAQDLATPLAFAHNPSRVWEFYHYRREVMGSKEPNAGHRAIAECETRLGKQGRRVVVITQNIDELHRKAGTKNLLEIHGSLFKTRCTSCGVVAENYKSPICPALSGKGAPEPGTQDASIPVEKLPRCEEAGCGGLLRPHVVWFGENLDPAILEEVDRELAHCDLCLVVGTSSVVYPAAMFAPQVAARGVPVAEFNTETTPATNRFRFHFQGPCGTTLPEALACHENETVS
Chain of Genome polyprotein (P29990 2492-3391 limits assumed): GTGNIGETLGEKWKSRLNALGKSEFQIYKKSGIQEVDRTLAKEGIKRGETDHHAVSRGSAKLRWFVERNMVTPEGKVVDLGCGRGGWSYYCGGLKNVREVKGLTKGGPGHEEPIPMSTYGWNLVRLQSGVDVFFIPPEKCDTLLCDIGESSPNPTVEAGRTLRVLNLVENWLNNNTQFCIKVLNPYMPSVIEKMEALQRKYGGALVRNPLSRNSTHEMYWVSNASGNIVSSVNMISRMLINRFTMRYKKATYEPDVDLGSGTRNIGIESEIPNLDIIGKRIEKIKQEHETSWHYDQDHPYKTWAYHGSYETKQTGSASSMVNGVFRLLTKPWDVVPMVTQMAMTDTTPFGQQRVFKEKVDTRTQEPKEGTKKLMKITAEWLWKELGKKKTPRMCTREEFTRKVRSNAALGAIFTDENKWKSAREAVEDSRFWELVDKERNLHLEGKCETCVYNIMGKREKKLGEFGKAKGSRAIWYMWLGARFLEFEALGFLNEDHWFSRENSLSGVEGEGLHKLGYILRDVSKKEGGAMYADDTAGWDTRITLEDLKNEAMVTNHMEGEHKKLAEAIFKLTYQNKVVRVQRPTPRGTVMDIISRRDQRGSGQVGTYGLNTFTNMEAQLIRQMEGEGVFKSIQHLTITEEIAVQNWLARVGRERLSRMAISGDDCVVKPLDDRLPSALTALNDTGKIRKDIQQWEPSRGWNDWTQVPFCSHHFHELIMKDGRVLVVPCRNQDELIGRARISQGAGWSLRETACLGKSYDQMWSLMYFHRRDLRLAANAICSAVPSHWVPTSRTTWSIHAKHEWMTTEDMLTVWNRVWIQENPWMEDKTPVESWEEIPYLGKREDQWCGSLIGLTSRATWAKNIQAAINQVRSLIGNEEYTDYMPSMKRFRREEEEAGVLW

COc1cccc(Nc2nc(C(N)Cc3ccc(F)cc3)cs2)n1 (configuration not stated)
AC50 [1]: 31.1 µM (active)
AC50 [2]: 16.8 µM (active)
AC50 [3]: 14.5 µM (active)
AC50 [4]: 28.5 µM (active)
AC50 [5]: 13.9 µM (active)

COc1ccc(C(c2c(C)[nH]n(-c3ccccc3)c2=O)c2c(C)[nH]n(-c3ccccc3)c2=O)cc1OC
IC50 [6]: 35.9 µM (active)
EC50 [7]: 0.688 µM (active)
IC50 [8]: 95.2 µM (inactive)
AC50 [9]: 1.22 µM (active)

O=C1C(Nc2ccccc2)=C(NS(=O)(=O)c2ccccc2[N+](=O)[O-])C(=O)c2ccccc21
AC50 [10]: > 70 µM (inactive)
AC50 [11]: > 70 µM (inactive)

O=S(=O)(c1ccc2c(c1)C(=NO)c1cc(S(=O)(=O)N3CCCCC3)ccc1-2)N1CCCCC1
EC50 [12]: 0.412 µM (active)
AC50 [13]: 0.879 µM (active)
AC50 [14]: 2.99 µM (active)
AC50 [15]: 0.287 µM (active)
AC50 [16]: 0.73 µM (active)
EC50 [17]: 2.97 µM (active)
EC50 [18]: 2.71 µM (inconclusive)
EC50 [19]: 6.01 µM (active)
EC50 [20]: 12.3 µM (active)
AC50 [21]: 0.871 µM (active)
EC50 [22]: 0.39 µM (active)
EC50 [23]: 2.68 µM (inconclusive)
EC50 [24]: 7.79 µM (active)
EC50 [25]: 2.65 µM (inconclusive)
EC50 [26]: 0.3 µM (active)
EC50 [27]: 3.8 µM (active)
EC50 [28]: 0.352 µM (active)
AC50 [29]: 0.794 µM (active)
AC50 [30]: 1.5 µM (active)
EC50 [31]: 0.749 µM (active)
EC50 [32]: 1.02 µM (inconclusive)
AC50 [33]: 0.767 µM (active)

C[C@@H]1CN([C@@H](C)CO)C(=O)c2cc(NS(=O)(=O)c3ccccc3)ccc2O[C@@H]1CN(C)CC1CCCCC1
AC50 [34]: > 30 µM (inactive)

O=C(C[C@@H]1CC[C@@H]2[C@H](COC[C@H](O)CN2S(=O)(=O)c2ccccc2Cl)O1)N1CCC(Cc2ccccc2)CC1
AC50 [21]: 13.3 µM (active)
AC50 [35]: 31.5 µM (active)
AC50 [36]: 44.9 µM (active)
AC50 [37]: 37.6 µM (active)

CS(=O)(=O)N1CC(=O)N2[C@H](CO)[C@H](c3ccc(C#CCC4CCCC4)cc3)[C@H]2C1
AC50 [38]: 23 µM (active)
AC50 [21]: 5.98 µM (active)
AC50 [39]: 33.1 µM (active)

COc1ccc(C#Cc2ccc(C(=O)N3CCCC(OC)C3)cc2)cc1 (configuration not stated)
IC50 [40]: 7.15 µM (active)
